In general, IC50 refers to the concentration at which inhibition is half-maximal.

Among the data in patent US8716226B2, “3,5 phenyl-substituted beta amino acid derivatives as integrin antagonists” (Saint Louis University, priority 2012, dated 2014) are IC50 values, retold here.

SMILES strings stand for the structures.

In assay [1] the target is T1, αvβ6 (Homo sapiens, UniProt P06756+P18564).
T1 construct: HT-29 cells (American Type Culture Collection, Manassas, Va.), which naturally express αvβ6; endogenous in cells; host or cells: HT-29 (human colon adenocarcinoma, ATCC)
Description: HT-29 cell adhesion assay for αvβ6 function. Particulars: HT-29 cells, adhesion to human LAP. It counts as cell-based. The procedure: HT-29 Cell Adhesion Assay for αvβ6 Function.
Purified human LAP protein (R&D Systems, Inc) diluted to 0.2 μg/ml in TS buffer (25 mM Tris 7.4, 150 mM NaCl) was added to wells (100 μl/well) of a 96-well microtiter plate (Immulon 2HB 96-well; VWR Scientific) and incubated overnight at 4° C. The solution in each well was then replaced with 200 μl of blocking buffer (TS with 1% bovine serum albumin), and the plate incubated for 1 hr at 37° C. Compounds were diluted in test tubes to 2× the peak testing concentration in cell adhesion buffer consisting of Hanks Buffered Salts Solution (HBSS, cation-free, Sigma), 0.1% bovine serum albumin, 25 mM HEPES, and 200 μM MnCl2. […] The cells were washed with the cell adhesion buffer, counted using a hemocytometer, centrifuged and resuspended in cell adhesion buffer at 4×10^6 cells/ml. […] Remaining attached cells were detected by addition of 100 μl/well p-nitrophenylphosphate (Sigma) solution (15 mg tablet dissolved in 25 ml 50 mM NaAcetate, pH5; 0.5% Triton-X-100), incubation for 30 min at 37° C., and then addition of 50 μl/well 1N NaOH to stop the enzyme reaction. Plates were read by colorimetric detection at 405 nm wavelength using a Tecan Safire II plate reader. Concentration-response curves were constructed by non-linear regression (best fit) analysis, and IC50 values were calculated for each compound. […]

Assay [2] deals with T2, recombinant human integrin αvβ1 (Homo sapiens, UniProt P05556+P06756).
T2 construct: purchased R&D Systems 6579-AV
Description: Solid phase receptor assay for αvβ1 function. Particulars: purified integrin binding to fibronectin-coated plate.
Description: Purified human fibronectin (R&D Systems, Inc) diluted to 5 μg/ml in TBS buffer (25 mM Tris 7.4, 137 mM NaCl, 2.7 mM KCl, 1 mM CaCl2, 1 mM MgCl2, 1 mM MnCl2) was added to wells (50 μl/well) of a 96-well half-well transparent microtiter plate (Costar 3690), and incubated overnight at 4° C. Wells were washed 3 times with 150 μl TBS, and 150 μl of blocking buffer (TBS with 1% bovine serum albumin) were added. The plate was incubated for 1 hr at 37° C., and then washed 3× with TBS buffer. Purified recombinant human integrin αvβ1 (R&D Systems 6579-AV) was diluted to 2.0 μg/ml in TBS/0.1% bovine serum albumin. Compounds were diluted into the integrin solution and then 50 μl was added to empty wells of the washed fibronectin-coated plate, according to a standard template, with each sample repeated in triplicate. After incubation for one hour at room temperature, the plate was washed 3× with 150 μl of TBS buffer. To each well, 50 μl of 1 μg/ml biotinylated anti-alpha v antibody (R&D Systems) in TBS/0.1% BSA was added, and the plate was covered and incubated for 1 hr at room temperature. After washing the plate 3× with 150 μl of TBS buffer, 50 μl of streptavidin-conjugated horseradish peroxidase (R&D Systems) was added to the wells, and the plate incubated for 20 min at room temperature. […] Plates were read by colorimetric detection at 650 nm wavelength using a Tecan Safire II plate reader.

T2 sequence (P06756 31-889 limits assumed): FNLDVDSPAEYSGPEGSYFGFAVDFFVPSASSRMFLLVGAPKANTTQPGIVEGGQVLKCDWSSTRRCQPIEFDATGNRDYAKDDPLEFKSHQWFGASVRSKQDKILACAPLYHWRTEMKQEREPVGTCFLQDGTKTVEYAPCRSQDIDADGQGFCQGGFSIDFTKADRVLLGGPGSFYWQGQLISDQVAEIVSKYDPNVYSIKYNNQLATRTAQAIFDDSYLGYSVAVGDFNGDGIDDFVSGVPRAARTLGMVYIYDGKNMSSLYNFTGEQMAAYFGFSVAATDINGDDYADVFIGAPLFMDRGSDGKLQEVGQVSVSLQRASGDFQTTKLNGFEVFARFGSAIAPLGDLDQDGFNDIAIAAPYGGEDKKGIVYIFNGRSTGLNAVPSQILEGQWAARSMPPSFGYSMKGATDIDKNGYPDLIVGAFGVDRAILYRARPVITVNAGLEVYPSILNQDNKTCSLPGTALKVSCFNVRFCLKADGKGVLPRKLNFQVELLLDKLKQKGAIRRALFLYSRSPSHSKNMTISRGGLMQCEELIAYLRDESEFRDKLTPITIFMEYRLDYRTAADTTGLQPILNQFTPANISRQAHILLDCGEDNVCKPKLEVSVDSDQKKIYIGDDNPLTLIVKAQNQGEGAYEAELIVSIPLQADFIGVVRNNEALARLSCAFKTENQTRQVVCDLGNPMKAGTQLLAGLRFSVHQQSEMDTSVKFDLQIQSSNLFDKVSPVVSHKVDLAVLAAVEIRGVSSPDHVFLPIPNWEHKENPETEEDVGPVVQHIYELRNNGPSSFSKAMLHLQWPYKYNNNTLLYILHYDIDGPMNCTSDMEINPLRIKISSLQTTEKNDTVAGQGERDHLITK
T2 sequence (P06756 891-992 partner limits assumed): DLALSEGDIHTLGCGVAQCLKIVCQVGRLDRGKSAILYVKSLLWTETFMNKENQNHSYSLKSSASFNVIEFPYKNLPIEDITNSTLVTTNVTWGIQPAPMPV
T2 sequence (P05556 21-728 limits assumed): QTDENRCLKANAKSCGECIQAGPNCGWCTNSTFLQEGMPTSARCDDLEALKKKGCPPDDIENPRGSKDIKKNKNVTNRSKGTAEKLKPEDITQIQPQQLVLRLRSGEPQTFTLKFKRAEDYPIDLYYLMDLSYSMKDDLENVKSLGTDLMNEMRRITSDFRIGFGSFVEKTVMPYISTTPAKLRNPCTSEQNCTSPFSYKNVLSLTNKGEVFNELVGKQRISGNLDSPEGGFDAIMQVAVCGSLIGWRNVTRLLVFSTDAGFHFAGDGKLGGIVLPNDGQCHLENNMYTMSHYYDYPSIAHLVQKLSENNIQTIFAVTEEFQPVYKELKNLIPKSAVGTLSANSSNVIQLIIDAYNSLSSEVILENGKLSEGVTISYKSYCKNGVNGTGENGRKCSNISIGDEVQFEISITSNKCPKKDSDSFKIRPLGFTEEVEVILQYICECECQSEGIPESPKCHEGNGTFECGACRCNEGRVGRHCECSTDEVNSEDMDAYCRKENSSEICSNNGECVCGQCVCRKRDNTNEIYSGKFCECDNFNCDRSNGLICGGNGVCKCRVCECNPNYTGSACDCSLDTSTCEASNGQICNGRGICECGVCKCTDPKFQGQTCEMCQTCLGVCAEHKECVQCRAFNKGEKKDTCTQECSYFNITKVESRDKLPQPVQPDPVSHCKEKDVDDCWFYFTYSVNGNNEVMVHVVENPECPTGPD
T1 sequence (P06756 31-889 limits assumed): as the sequence (P06756 31-889 limits assumed) above
T1 sequence (P06756 891-1048 partner limits assumed): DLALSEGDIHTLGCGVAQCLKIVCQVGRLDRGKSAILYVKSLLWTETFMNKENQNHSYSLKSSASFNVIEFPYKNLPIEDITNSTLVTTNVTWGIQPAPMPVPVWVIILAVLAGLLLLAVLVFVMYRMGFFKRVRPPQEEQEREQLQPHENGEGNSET
T1 sequence (P18564 22-788): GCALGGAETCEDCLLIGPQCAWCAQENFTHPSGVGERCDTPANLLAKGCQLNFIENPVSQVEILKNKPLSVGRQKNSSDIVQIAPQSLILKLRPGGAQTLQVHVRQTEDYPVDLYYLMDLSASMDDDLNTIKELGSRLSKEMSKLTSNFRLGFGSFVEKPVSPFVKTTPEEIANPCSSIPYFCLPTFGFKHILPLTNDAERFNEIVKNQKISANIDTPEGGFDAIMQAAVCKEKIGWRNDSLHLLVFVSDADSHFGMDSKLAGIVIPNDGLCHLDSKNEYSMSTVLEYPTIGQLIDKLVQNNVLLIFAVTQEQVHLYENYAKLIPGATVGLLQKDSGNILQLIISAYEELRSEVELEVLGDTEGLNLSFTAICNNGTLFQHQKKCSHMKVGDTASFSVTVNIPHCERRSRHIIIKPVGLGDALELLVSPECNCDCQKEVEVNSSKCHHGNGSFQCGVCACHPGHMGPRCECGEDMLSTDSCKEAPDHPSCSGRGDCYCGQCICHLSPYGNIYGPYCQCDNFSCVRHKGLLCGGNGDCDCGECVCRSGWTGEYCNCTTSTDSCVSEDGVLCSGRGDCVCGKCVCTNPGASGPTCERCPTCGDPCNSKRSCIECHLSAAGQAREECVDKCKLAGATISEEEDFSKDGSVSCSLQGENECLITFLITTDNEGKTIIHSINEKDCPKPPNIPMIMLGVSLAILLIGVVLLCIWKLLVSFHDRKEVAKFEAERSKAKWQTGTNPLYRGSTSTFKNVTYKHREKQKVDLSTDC

Regarding `CC(C)(C)c1cc(Br)cc([C@H](CC(=O)O)NC(=O)CNC(=O)c2cc(O)cc(NC3=NCC(O)CN3)c2)c1` (stereo partly drawn) [Example 1, (3S)—N-[3-hydroxy-5-[(1,4,5,6-tetrahydro-5-hydroxy-2-pyrimidinyl)amino]benzoyl]glycyl-3-(3-bromo-5-tert-butylphenyl)-β-alanine], the IC50 came to 1.5 nM in assay [1] and 2.5 nM in assay [2].
